Experimental data reported in ChEMBL document CHEMBL1129326, “Inhibition of DNA topoisomerase II by azaelliptitoxins functionalized in the variable substituent domain” (J Med Chem, 1996).
Calls of active or inactive are those of the source. The calls are words filed in the database; no cut-off is given here.

target: DNA topoisomerase II (Homo sapiens) (UniProt P11388+Q02880); test: Inhibitory activity against human DNA Topoisomerase-2, activity is expressed as relative DNA cleavage compared to Azatoxin by densitometric analysis; inactive; assay type: protein assay

| Structure (SMILES) | Activity |
| --- | --- |
| COc1cc(N[C@@H]2c3c([nH]c4ccccc34)[C@@H](c3cc(OC)c(O)c(OC)c3)N3C(=O)OC[C@H]23)ccc1O | inactive |
| COc1cc([C@@H]2c3[nH]c4ccccc4c3[C@@H](Nc3cc(OC)c(OC)c(OC)c3)[C@H]3COC(=O)N23)cc(OC)c1O | inactive |
| COc1cc([C@@H]2c3[nH]c4ccccc4c3[C@@H](OC)[C@H]3COC(=O)N23)cc(OC)c1O | inactive |
